Earlier results in US20230109016A1, “IN-VITRO DIAGNOSIS OF HISTAMINE INTOLERANCE SYNDROME” (IMMUNDIAGNOSTIK AG, priority 2020, published 2023).

Molecular target: T1, DAO in serum (Homo sapiens, UniProt P19801)
T1 construct: host or cells: serum
T1 sequence (P19801 20-751): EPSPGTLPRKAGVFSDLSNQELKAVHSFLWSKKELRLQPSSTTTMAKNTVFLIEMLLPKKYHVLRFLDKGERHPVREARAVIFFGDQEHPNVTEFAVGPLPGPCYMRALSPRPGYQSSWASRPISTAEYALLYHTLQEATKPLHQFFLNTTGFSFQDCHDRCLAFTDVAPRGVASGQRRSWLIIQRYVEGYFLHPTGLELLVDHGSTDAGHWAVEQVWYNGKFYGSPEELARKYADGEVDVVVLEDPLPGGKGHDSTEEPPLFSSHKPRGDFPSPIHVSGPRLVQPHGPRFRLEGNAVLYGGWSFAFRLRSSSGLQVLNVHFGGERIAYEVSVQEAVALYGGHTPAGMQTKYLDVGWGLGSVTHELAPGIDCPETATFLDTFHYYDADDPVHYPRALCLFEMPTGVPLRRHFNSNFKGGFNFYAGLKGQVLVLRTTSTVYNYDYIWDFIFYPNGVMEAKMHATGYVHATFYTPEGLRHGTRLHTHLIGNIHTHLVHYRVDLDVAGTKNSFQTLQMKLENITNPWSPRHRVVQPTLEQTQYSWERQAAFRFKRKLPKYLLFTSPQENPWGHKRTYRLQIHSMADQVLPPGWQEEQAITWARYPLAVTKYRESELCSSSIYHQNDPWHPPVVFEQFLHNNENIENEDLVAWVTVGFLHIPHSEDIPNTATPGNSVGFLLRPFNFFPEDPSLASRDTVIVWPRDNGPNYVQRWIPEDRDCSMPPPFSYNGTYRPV
Conditions: not given

| Molecule | effect on the activity of DAO in serum |
| --- | --- |
| CCCC(C)C1(CC)C(=O)NC(=S)NC1=O (centres unmarked) [thiopental] | inhibited |
| CN1CC[C@]23c4c5ccc(O)c4O[C@H]2[C@@H](O)C=C[C@H]3[C@H]1C5 [morphine] | inhibited |
| CCOC(=O)C1(c2ccccc2)CCN(C)CC1 [pethidine] | inhibited |

Same assay, conditions: stated as known

| Molecule | effect on the activity of DAO in serum |
| --- | --- |
| O=P1(N(CCCl)CCCl)NCCCO1 (centres unmarked) [cyclophosphamide] | inhibited |
| CCN(CC)CCNC(=O)c1cc(Cl)c(N)cc1OC [metoclopramide] | inhibited |
| N=C(N)NC(=O)c1nc(Cl)c(N)nc1N [amiloride] | inhibited |
| CN(C)CCC=C1c2ccccc2CCc2ccccc21 [amitriptyline] | inhibited |
| CC(=O)N[C@@H](CS)C(=O)O [acetylcysteine] | inhibited |
| CCCNC(C)C(=O)Nc1ccccc1C (centres unmarked) [prilocaine] | inhibited |
| O=C(O)[C@H]1/C(=C/CO)O[C@@H]2CC(=O)N21 [clavulanic acid] | inhibited |
| CC(=O)Oc1ccccc1C(=O)O [acetylsalicylic acid] | inhibited |
| CN(C)CCn1nnnc1SCC1=C(C(=O)O)N2C(=O)[C@@H](NC(=O)Cc3csc(N)n3)[C@H]2SC1 [cefotiam] | inhibited |
| NNC(=O)c1ccncc1 [isoniazid] | inhibited |
| N/N=c1\[nH][nH]/c(=N\N)c2ccccc12 [dihydralazin] | inhibited |
| N=C(N)c1ccc(OCCCCCOc2ccc(C(=N)N)cc2)cc1 [pentamidin] | inhibited |
| Cn1c(=O)c2[nH]cnc2n(C)c1=O [aminophylline] | inhibited |
| COc1cc2c3cc1Oc1cc(ccc1O)C[C@@H]1c4c(cc(OC)c(O)c4Oc4ccc(cc4)C[C@@H]3N(C)CC2)CC[N+]1(C)C [D-tubocurarine] | inhibited |
| CC(=O)O[C@H]1C[C@@H]2CC[C@@H]3[C@H](CC[C@@]4(C)[C@H]3C[C@H]([N+]3(C)CCCCC3)[C@@H]4OC(C)=O)[C@@]2(C)C[C@@H]1[N+]1(C)CCCCC1 [pancuronium] | inhibited |
| CN/C(=N/CCSCc1nc[nH]c1C)NC#N [cimetidine] | inhibited |
| CO/N=C(\C(=O)N[C@@H]1C(=O)N2C(C(=O)O)=C(COC(N)=O)CS[C@H]12)c1ccco1 [cefuroxime] | inhibited |
| CC(CCc1ccc(O)cc1)NCCc1ccc(O)c(O)c1 (centres unmarked) [dobutamine] | inhibited |
| CCN(CC)CCCC(C)Nc1ccnc2cc(Cl)ccc12 (centres unmarked) [chloroquine] | inhibited |
| Nc1c(Br)cc(Br)cc1CN[C@H]1CC[C@H](O)CC1 [ambroxol] | inhibited |
| C=CCc1ccccc1OCC(O)CNC(C)C (centres unmarked) [alprenolol] | inhibited |
| Cc1c(N(C)CS(=O)(=O)O)c(=O)n(-c2ccccc2)n1C [metamizole] | inhibited |
| C=CC[N@@+]12CC[C@@]34c5ccccc5N5/C=C6/[C@H]7C[C@H]8[C@@]9(CC[N@@+]8(CC=C)C/C7=C/CO)c7ccccc7N(/C=C(/[C@@H](C[C@@H]31)/C(=C\CO)C2)[C@H]54)[C@@H]69 [alcuronium] | inhibited |

Test system: DAO
Conditions: within 30 minutes of heparin administration

| Molecule | DAO levels in humans |
| --- | --- |
| heparin | increase sharply |

Molecular target: Human serum DAO (Homo sapiens, UniProt P19801)
Conditions: 100 micromolar histamine in the assay

| Molecule | inhibition of human serum DAO |
| --- | --- |
| NCCc1c[nH]cn1 [histamine, 2-(4-imidazolyl)-ethylamine] | partly inhibited |

Same assay, conditions: histamine concentration of 500 micromoles (U.S. Pat. No. 8,003,343)

| Molecule | inhibition of human DAO activity |
| --- | --- |
| NCCc1c[nH]cn1 [histamine, 2-(4-imidazolyl)-ethylamine] | about 60% |

Molecular target: recombinant human kidney DAO (Homo sapiens, UniProt P19801)
Conditions: read-out: Km (Michaelis constant); isolated recombinant human kidney DAO expressed in Drosophila cells (Elmore et al. 2002)

| Molecule | Km [µM] |
| --- | --- |
| NCCc1c[nH]cn1 [histamine, 2-(4-imidazolyl)-ethylamine] | ~2.8 |
| NCCCCN [putrescine, 1,4-diaminobutane] | ~20 |

Test system: not given
Conditions: 37° C.

| Molecule | apparent half-life in serum [h] |
| --- | --- |
| NCCc1c[nH]cn1 [histamine, 2-(4-imidazolyl)-ethylamine] | 0.033 to 4 |

Test system: MAO
Conditions: 14C-putrescine 1 micromole to 5 millimole

| Molecule | sensitivity of serum MAO (lower affinity enzyme) to inhibitor |
| --- | --- |
| C#CCN(C)[C@H](C)Cc1ccccc1 [selegiline] | sensitive |

Molecular target: T2, DAO (Homo sapiens, UniProt P19801)
T2 sequence (P19801 20-751): T1 sequence (P19801 20-751)
Conditions: 14C-putrescine 1 micromole to 5 millimole

| Molecule | sensitivity of serum DAO (high affinity enzyme) to inhibitor |
| --- | --- |
| N=C(N)NN [alpha-aminoguanidine] | sensitive |

Molecular target: T2, DAO
Conditions: presence of heparin in experiments with cell culture

| Molecule | impact on the DAO level or its activity |
| --- | --- |
| heparin | no impact |
